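Where inhibition never reached the appropriate level, the endpoint shown equals the highest concentration tested. Otherwise, values were interpolated linearly from a five-concentration, 48-hour dose response in 96-well plates. TGI: concentration producing complete growth inhibition.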
Key:
Experiment in all cases: NCI tumour cell line growth inhibition, 48 h
CCRF-CEM leukemia = system: CCRF-CEM leukemia
UO-31 renal = system: UO-31 renal
HOP-92 NSCLC = system: HOP-92 NSCLC
P388/ADR leukemia = system: P388/ADR leukemia
KM20L2 colon = system: KM20L2 colon
SK-OV-3 ovarian = system: SK-OV-3 ovarian
XF 498 CNS = system: XF 498 CNS
SNB-19 CNS = system: SNB-19 CNS
SNB-78 CNS = system: SNB-78 CNS
OVCAR-5 ovarian = system: OVCAR-5 ovarian
LOX IMVI melanoma = system: LOX IMVI melanoma
HCT-116 colon = system: HCT-116 colon
SK-MEL-5 melanoma = system: SK-MEL-5 melanoma
RPMI-8226 leukemia = system: RPMI-8226 leukemia
SK-MEL-28 melanoma = system: SK-MEL-28 melanoma
RXF 393 renal = system: RXF 393 renal
KM12 colon = system: KM12 colon
MALME-3M melanoma = system: MALME-3M melanoma
U251 CNS = system: U251 CNS
SF-539 CNS = system: SF-539 CNS
HOP-18 NSCLC = system: HOP-18 NSCLC
DMS 273 small cell lung = system: DMS 273 small cell lung
NCI-H460 lung = system: NCI-H460 lung
SW-620 colon = system: SW-620 colon
HL-60(TB) leukemia = system: HL-60(TB) leukemia
A549 NSCLC = system: A549 NSCLC
HCC-2998 colon = system: HCC-2998 colon
A498 renal = system: A498 renal
MOLT-4 leukemia = system: MOLT-4 leukemia
HT29 colon = system: HT29 colon
SF-295 CNS = system: SF-295 CNS
DLD-1 colon = system: DLD-1 colon
K-562 leukemia = system: K-562 leukemia
UACC-62 melanoma = system: UACC-62 melanoma
SK-MEL-2 melanoma = system: SK-MEL-2 melanoma
SF-268 CNS = system: SF-268 CNS
SNB-75 CNS = system: SNB-75 CNS
HCT-15 colon = system: HCT-15 colon
P388 leukemia = system: P388 leukemia
EKVX NSCLC = system: EKVX NSCLC
UACC-257 melanoma = system: UACC-257 melanoma
HOP-62 NSCLC = system: HOP-62 NSCLC
NCI-H522 lung = system: NCI-H522 lung
MCF7 breast = system: MCF7 breast
COLO 205 colon = system: COLO 205 colon
NCI-H226 lung = system: NCI-H226 lung
SN12K1 renal = system: SN12K1 renal
OVCAR-3 ovarian = system: OVCAR-3 ovarian
SN12C renal = system: SN12C renal
IGROV1 ovarian = system: IGROV1 ovarian
OVCAR-4 ovarian = system: OVCAR-4 ovarian
DMS 114 small cell lung = system: DMS 114 small cell lung
OVCAR-8 ovarian = system: OVCAR-8 ovarian
CAKI-1 renal = system: CAKI-1 renal
NCI/ADR-RES ovarian = system: NCI/ADR-RES ovarian
NCI-H23 lung = system: NCI-H23 lung
M19-MEL melanoma = system: M19-MEL melanoma
RXF-631 renal = system: RXF-631 renal
DU-145 prostate = system: DU-145 prostate
MDA-MB-231 breast = system: MDA-MB-231 breast
PC-3 prostate = system: PC-3 prostate
LXFL 529 NSCLC = system: LXFL 529 NSCLC
BT-549 breast = system: BT-549 breast
HS 578T breast = system: HS 578T breast
M14 melanoma = system: M14 melanoma
SR leukemia = system: SR leukemia
786-0 renal = system: 786-0 renal
MDA-MB-435 = system: MDA-MB-435
MDA-N = system: MDA-N
ACHN renal = system: ACHN renal
T-47D breast = system: T-47D breast
TK-10 renal = system: TK-10 renal

SMILES: CCC1OC(=O)C(C)C(OC2CC(C)(O)C(O)C(C)O2)C(C)C(O)C(C)(O)CC(C)C(=O)C(C)C(O)C1C (stereo unspecified)
- TGI (CCRF-CEM leukemia): > 300 µM
- TGI (UO-31 renal): > 300 µM
- TGI (HOP-92 NSCLC): > 300 µM
- TGI (P388/ADR leukemia): > 300 µM
- TGI (KM20L2 colon): > 300 µM
- TGI (SK-OV-3 ovarian): > 300 µM
- TGI (XF 498 CNS): > 300 µM
- TGI (SNB-19 CNS): > 300 µM
- TGI (SNB-78 CNS): > 189 µM
- TGI (OVCAR-5 ovarian): > 300 µM
- TGI (LOX IMVI melanoma): > 300 µM
- TGI (HCT-116 colon): > 300 µM
- TGI (SK-MEL-5 melanoma): > 300 µM
- TGI (RPMI-8226 leukemia): > 300 µM
- TGI (SK-MEL-28 melanoma): > 300 µM
- TGI (RXF 393 renal): > 300 µM
- TGI (KM12 colon): > 300 µM
- TGI (MALME-3M melanoma): > 300 µM
- TGI (U251 CNS): > 300 µM
- TGI (SF-539 CNS): > 300 µM
- TGI (HOP-18 NSCLC): > 300 µM
- TGI (DMS 273 small cell lung): > 300 µM
- TGI (NCI-H460 lung): > 300 µM
- TGI (SW-620 colon): > 300 µM
- TGI (HL-60(TB) leukemia): > 300 µM
- TGI (A549 NSCLC): > 300 µM
- TGI (HCC-2998 colon): > 300 µM
- TGI (A498 renal): > 300 µM
- TGI (MOLT-4 leukemia): > 300 µM
- TGI (HT29 colon): > 300 µM
- TGI (SF-295 CNS): > 300 µM
- TGI (DLD-1 colon): > 300 µM
- TGI (K-562 leukemia): > 300 µM
- TGI (UACC-62 melanoma): > 300 µM
- TGI (SK-MEL-2 melanoma): > 300 µM
- TGI (SF-268 CNS): > 300 µM
- TGI (SNB-75 CNS): > 300 µM
- TGI (HCT-15 colon): > 300 µM
- TGI (P388 leukemia): > 300 µM
- TGI (EKVX NSCLC): > 300 µM
- TGI (UACC-257 melanoma): > 300 µM
- TGI (HOP-62 NSCLC): > 300 µM
- TGI (NCI-H522 lung): > 300 µM
- TGI (MCF7 breast): > 300 µM
- TGI (COLO 205 colon): > 300 µM
- TGI (NCI-H226 lung): > 300 µM
- TGI (SN12K1 renal): > 300 µM
- TGI (OVCAR-3 ovarian): > 300 µM
- TGI (SN12C renal): > 300 µM
- TGI (IGROV1 ovarian): > 300 µM
- TGI (OVCAR-4 ovarian): > 300 µM
- TGI (DMS 114 small cell lung): > 300 µM
- TGI (OVCAR-8 ovarian): > 300 µM
- TGI (CAKI-1 renal): > 300 µM
- TGI (NCI/ADR-RES ovarian): > 300 µM
- TGI (NCI-H23 lung): > 300 µM
- TGI (M19-MEL melanoma): > 300 µM

SMILES: CN(C)CCCNc1ccc2nnn3c4ccc([N+](=O)[O-])cc4c(=O)c1c23
- TGI (CCRF-CEM leukemia): 12.1 µM
- TGI (UO-31 renal): 9.5 µM
- TGI (HOP-92 NSCLC): 7.45 µM
- TGI (RXF-631 renal): 7.59 µM
- TGI (KM20L2 colon): 9.69 µM
- TGI (SK-OV-3 ovarian): 16 µM
- TGI (XF 498 CNS): 11.4 µM
- TGI (DU-145 prostate): 12.1 µM
- TGI (MDA-MB-231 breast): 2.95 µM
- TGI (SNB-19 CNS): 15.3 µM
- TGI (SNB-78 CNS): 16 µM
- TGI (OVCAR-5 ovarian): 9.59 µM
- TGI (LOX IMVI melanoma): 2.22 µM
- TGI (HCT-116 colon): 12.3 µM
- TGI (SK-MEL-5 melanoma): 5.97 µM
- TGI (RPMI-8226 leukemia): 7.31 µM
- TGI (PC-3 prostate): 11.7 µM
- TGI (LXFL 529 NSCLC): 15 µM
- TGI (SK-MEL-28 melanoma): 17.2 µM
- TGI (RXF 393 renal): 4.25 µM
- TGI (KM12 colon): 4.53 µM
- TGI (MALME-3M melanoma): 14.5 µM
- TGI (BT-549 breast): 19.2 µM
- TGI (U251 CNS): 5.16 µM
- TGI (SF-539 CNS): 14.2 µM
- TGI (HS 578T breast): 14.2 µM
- TGI (M14 melanoma): 8.31 µM
- TGI (HOP-18 NSCLC): 13.6 µM
- TGI (DMS 273 small cell lung): 6.89 µM
- TGI (NCI-H460 lung): 1.57 µM
- TGI (SW-620 colon): 12.9 µM
- TGI (HL-60(TB) leukemia): 11.3 µM
- TGI (SR leukemia): 6.03 µM
- TGI (A549 NSCLC): 3.06 µM
- TGI (HCC-2998 colon): 10.4 µM
- TGI (786-0 renal): 13 µM
- TGI (A498 renal): 6.33 µM
- TGI (MOLT-4 leukemia): 5.63 µM
- TGI (HT29 colon): 7.11 µM
- TGI (SF-295 CNS): 7.44 µM
- TGI (DLD-1 colon): 14.4 µM
- TGI (K-562 leukemia): 21.9 µM
- TGI (UACC-62 melanoma): 14.4 µM
- TGI (SK-MEL-2 melanoma): 15 µM
- TGI (SF-268 CNS): 12 µM
- TGI (SNB-75 CNS): 8.55 µM
- TGI (HCT-15 colon): 7.77 µM
- TGI (MDA-MB-435): 12.3 µM
- TGI (EKVX NSCLC): 12.9 µM
- TGI (UACC-257 melanoma): 16.7 µM
- TGI (MDA-N): 15.9 µM
- TGI (HOP-62 NSCLC): 8.51 µM
- TGI (ACHN renal): 5.92 µM
- TGI (NCI-H522 lung): 17 µM
- TGI (MCF7 breast): 8.08 µM
- TGI (T-47D breast): 27.9 µM
- TGI (COLO 205 colon): 5.35 µM
- TGI (NCI-H226 lung): 3.02 µM
- TGI (OVCAR-3 ovarian): 11 µM
- TGI (SN12C renal): 9.5 µM
- TGI (IGROV1 ovarian): 13.3 µM
- TGI (OVCAR-4 ovarian): 3.92 µM
- TGI (DMS 114 small cell lung): 14.1 µM
- TGI (OVCAR-8 ovarian): 5.38 µM
- TGI (CAKI-1 renal): 12.9 µM
- TGI (NCI/ADR-RES ovarian): 3.09 µM
- TGI (NCI-H23 lung): 8.61 µM
- TGI (M19-MEL melanoma): 16.2 µM
- TGI (TK-10 renal): 7.95 µM

From PubChem BioAssay (NCI)
